ChEMBL document CHEMBL1201862, “PubChem BioAssay data set” (2004)
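Five compound concentrations were applied to cells in 96-well plates for 48 hours; endpoints were derived by simple linear interpolation of the resulting dose-response curve. GI50 marks 50% less growth.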 Calls of active or inactive are those of the source. No stated cut-off is given here; in the data, active = GI50 up to about 1.1 µM and inactive = higher.

What was measured:
Assay in all cases: growth of human tumour cells (NCI), 48 h
A549 = system: A549
HOP-62 = system: HOP-62
IGROV-1 = system: IGROV-1
MOLT-4 = system: MOLT-4
NCI-H226 = system: NCI-H226
NCI-H522 = system: NCI-H522
OVCAR-4 = system: OVCAR-4
RPMI-8226 = system: RPMI-8226
RXF 393 = system: RXF 393
SF-539 = system: SF-539
SK-MEL-5 = system: SK-MEL-5
SK-OV-3 = system: SK-OV-3
SR = system: SR
TK-10 = system: TK-10
U-251 = system: U-251
UACC-257 = system: UACC-257
UACC-62 = system: UACC-62
MCF7 = system: MCF7
MDA-MB-435 = system: MDA-MB-435
NCI/ADR-RES = system: NCI/ADR-RES

Row | SMILES | GI50 (A549) | GI50 (HOP-62) | GI50 (IGROV-1) | GI50 (MOLT-4) | GI50 (NCI-H226) | GI50 (NCI-H522) | GI50 (OVCAR-4) | GI50 (RPMI-8226) | GI50 (RXF 393) | GI50 (SF-539) | GI50 (SK-MEL-5) | GI50 (SK-OV-3) | GI50 (SR) | GI50 (TK-10) | GI50 (U-251) | GI50 (UACC-257) | GI50 (UACC-62) | GI50 (MCF7) | GI50 (MDA-MB-435) | GI50 (NCI/ADR-RES)
1 | CCCCCC(=O)OC[n+]1ccc2c(C)c3[nH]c4ccccc4c3c(C)c2c1 | 0.586 µM (active) | 1.24 µM (inactive) | 1.75 µM (inactive) | 0.327 µM (active) | 1.32 µM (inactive) | 1.49 µM (inactive) | 1.1 µM (active) | 0.288 µM (active) | 1.23 µM (inactive) | 0.817 µM (active) | 1.51 µM (inactive) | 1.92 µM (inactive) | 0.281 µM (active) | 3.08 µM (inactive) | 0.656 µM (active) | 1.57 µM (inactive) | 1.56 µM (inactive) | – | – | –
2 | Cc1cc(N(CCC#N)CCC#N)ccc1/C=C(\NC(=O)/C=C/c1ccccc1)C(=O)Nc1ccc(Cl)cc1 | > 36.5 µM (inactive) | – | 7.62 µM (inactive) | 38.1 µM (inactive) | > 69 µM (inactive) | > 26.2 µM (inactive) | 30.5 µM (inactive) | 10 µM (inactive) | > 68.9 µM (inactive) | 6.81 µM (inactive) | 0.179 µM (active) | > 100 µM (inactive) | – | > 100 µM (inactive) | > 7.53 µM (inactive) | > 46 µM (inactive) | 0.577 µM (active) | 27 µM (inactive) | 1.94 µM (inactive) | > 100 µM (inactive)
3 | O=C1CC[C@@]23CC(=O)O[C@@H]2CCCC3C1 (some centres undefined) | > 100 µM (inactive) | > 100 µM (inactive) | > 100 µM (inactive) | > 100 µM (inactive) | > 100 µM (inactive) | > 100 µM (inactive) | > 100 µM (inactive) | > 100 µM (inactive) | 18.5 µM (inactive) | > 100 µM (inactive) | > 100 µM (inactive) | > 100 µM (inactive) | > 100 µM (inactive) | > 100 µM (inactive) | > 100 µM (inactive) | > 100 µM (inactive) | > 100 µM (inactive) | > 100 µM (inactive) | – | > 100 µM (inactive)
4 | O=C1C=C(c2ccccc2)OC1C1Sc2ccccc2NC1=O (centres undefined) | 3.06 µM (inactive) | 1.04 µM (active) | 11.4 µM (inactive) | 10.6 µM (inactive) | 14.5 µM (inactive) | 6.85 µM (inactive) | 18.7 µM (inactive) | 3.66 µM (inactive) | 14 µM (inactive) | 5.38 µM (inactive) | 9.51 µM (inactive) | 8.09 µM (inactive) | – | 9.23 µM (inactive) | 4.01 µM (inactive) | 7.6 µM (inactive) | 11.9 µM (inactive) | 3.81 µM (inactive) | 5.11 µM (inactive) | 34.5 µM (inactive)
5 | Cc1cccc(C(C)C)c1NC(=O)C(=O)CC(=O)c1sc(Nc2ccccc2Cl)nc1C | 31.4 µM (inactive) | > 100 µM (inactive) | 46.3 µM (inactive) | 25.6 µM (inactive) | – | 40.5 µM (inactive) | 83.4 µM (inactive) | 13.3 µM (inactive) | 40.6 µM (inactive) | 4 µM (inactive) | 13.5 µM (inactive) | 20.7 µM (inactive) | 18.2 µM (inactive) | 90.2 µM (inactive) | 23.1 µM (inactive) | 54.5 µM (inactive) | 42.4 µM (inactive) | 10.3 µM (inactive) | 7.26 µM (inactive) | –
6 | CN(C)CCN(C)CCC(=O)/C=C/c1ccccc1 | > 71.6 µM (inactive) | > 100 µM (inactive) | > 47.9 µM (inactive) | 7.26 µM (inactive) | > 48.1 µM (inactive) | 4.02 µM (inactive) | 38.2 µM (inactive) | 2.16 µM (inactive) | 21.3 µM (inactive) | 19.1 µM (inactive) | > 44.5 µM (inactive) | > 100 µM (inactive) | 7 µM (inactive) | 25.9 µM (inactive) | 57.7 µM (inactive) | 22.2 µM (inactive) | 25.4 µM (inactive) | – | – | –
7 | CC1(C)N[PH]2(Nc3ccccc3O2)OC1=O | 32.7 µM (inactive) | > 100 µM (inactive) | > 100 µM (inactive) | 22.8 µM (inactive) | 35.9 µM (inactive) | – | > 100 µM (inactive) | 5.32 µM (inactive) | > 100 µM (inactive) | 66.5 µM (inactive) | 24.3 µM (inactive) | > 100 µM (inactive) | – | 68.2 µM (inactive) | 70.1 µM (inactive) | > 100 µM (inactive) | 18.6 µM (inactive) | 22.8 µM (inactive) | 16.4 µM (inactive) | 49.9 µM (inactive)
8 | CCOC(=O)N1CCC2(CC1)C[C@@](C(C)=O)(c1ccccc1)C(C)O2 (some centres undefined) | 51.3 µM (inactive) | > 100 µM (inactive) | > 100 µM (inactive) | > 100 µM (inactive) | > 100 µM (inactive) | > 100 µM (inactive) | > 100 µM (inactive) | > 100 µM (inactive) | – | > 100 µM (inactive) | > 100 µM (inactive) | 57.4 µM (inactive) | – | > 100 µM (inactive) | > 100 µM (inactive) | > 100 µM (inactive) | 56 µM (inactive) | > 100 µM (inactive) | > 100 µM (inactive) | > 100 µM (inactive)
9 | O=C1c2cccc3cc([N+](=O)[O-])cc(c23)C(=O)N1CCCN1CCN(CCCNc2ccc3ncn4c5ccccc5c(=O)c2c34)CC1 | < 0.005 µM (active) | < 0.005 µM (active) | < 0.005 µM (active) | < 0.005 µM (active) | < 0.005 µM (active) | < 0.005 µM (active) | 0.00547 µM (active) | < 0.005 µM (active) | < 0.005 µM (active) | < 0.005 µM (active) | – | 0.0198 µM (active) | – | < 0.005 µM (active) | < 0.005 µM (active) | < 0.005 µM (active) | < 0.005 µM (active) | < 0.005 µM (active) | < 0.005 µM (active) | < 0.005 µM (active)
10 | CCN1C(=O)C(=C/C=C/c2ccc(N(CC)CC)cc2)C(=O)N(CC)C1=S | > 100 µM (inactive) | 21.7 µM (inactive) | > 100 µM (inactive) | 33.9 µM (inactive) | 93.3 µM (inactive) | – | > 100 µM (inactive) | > 100 µM (inactive) | > 100 µM (inactive) | 72.1 µM (inactive) | > 100 µM (inactive) | > 100 µM (inactive) | – | > 100 µM (inactive) | > 100 µM (inactive) | > 100 µM (inactive) | 87.5 µM (inactive) | > 100 µM (inactive) | 86.9 µM (inactive) | 33.9 µM (inactive)
11 | C=C(Cl)C(Cl)(CCl)CCC(Br)C(C)(C)Br (centres undefined) | > 10 µM (inactive) | > 10 µM (inactive) | > 10 µM (inactive) | > 10 µM (inactive) | > 10 µM (inactive) | > 10 µM (inactive) | > 10 µM (inactive) | > 10 µM (inactive) | > 10 µM (inactive) | > 10 µM (inactive) | > 10 µM (inactive) | > 10 µM (inactive) | > 10 µM (inactive) | > 10 µM (inactive) | > 10 µM (inactive) | – | > 10 µM (inactive) | > 10 µM (inactive) | > 10 µM (inactive) | –
12 | O=C(O)/C=C(/CC(=O)O)C(=O)O | 18.6 µM (inactive) | 16.7 µM (inactive) | 20.9 µM (inactive) | 19.1 µM (inactive) | 21.6 µM (inactive) | 17.9 µM (inactive) | 25.8 µM (inactive) | 14.9 µM (inactive) | 16 µM (inactive) | 12.3 µM (inactive) | 21 µM (inactive) | 21.5 µM (inactive) | – | 23.2 µM (inactive) | 19.4 µM (inactive) | 33.1 µM (inactive) | 18.2 µM (inactive) | 19.3 µM (inactive) | 18.3 µM (inactive) | 21 µM (inactive)
13 | CC(C)c1ccc2nc3ccc(C(=O)NCCN(C)C)cn3c(=O)c2c1 | 17.4 µM (inactive) | 15.3 µM (inactive) | 30.8 µM (inactive) | 15 µM (inactive) | 18 µM (inactive) | 15.3 µM (inactive) | 24.7 µM (inactive) | – | – | 14.9 µM (inactive) | 12.4 µM (inactive) | 17.5 µM (inactive) | 17.5 µM (inactive) | 17.3 µM (inactive) | 19.9 µM (inactive) | 12.1 µM (inactive) | 16.6 µM (inactive) | 16.3 µM (inactive) | – | 18.2 µM (inactive)
14 | OC1(C(F)(F)F)OCCN=C1C(F)(F)F (centres undefined) | > 100 µM (inactive) | > 100 µM (inactive) | 99.3 µM (inactive) | 69.8 µM (inactive) | > 100 µM (inactive) | 40.4 µM (inactive) | > 100 µM (inactive) | > 100 µM (inactive) | > 100 µM (inactive) | – | 56.2 µM (inactive) | > 100 µM (inactive) | – | > 100 µM (inactive) | > 100 µM (inactive) | > 100 µM (inactive) | > 100 µM (inactive) | > 100 µM (inactive) | > 100 µM (inactive) | 88.3 µM (inactive)
15 | O=C(NO)c1ccc(O)c(O)c1 | > 100 µM (inactive) | > 100 µM (inactive) | > 100 µM (inactive) | 93.3 µM (inactive) | > 100 µM (inactive) | 79.4 µM (inactive) | > 100 µM (inactive) | 32.4 µM (inactive) | > 100 µM (inactive) | > 100 µM (inactive) | > 100 µM (inactive) | > 100 µM (inactive) | 36.4 µM (inactive) | 98.6 µM (inactive) | > 100 µM (inactive) | > 100 µM (inactive) | > 100 µM (inactive) | – | – | –
